Measurements as given in patent US12005050B2, “Methods for preventing or treating H. pylori infection” (TENNOR THERAPEUTICS (SUZHOU) LIMITED, priority 2022, dated 2024).

Tests used:
Helicobacter pylori = conditions: In China; cited from earlier work
[1] = human, in vivo
Description: The 40 patients were randomly allocated to four groups at a ratio of 1:1:1:1. […] The detection linear range was as below: • Compound I: Lower Limit Of Quantitation (LLOQ): 1.00 ng/mL; Upper Limit Of Quantitation (ULOQ): 1,000 ng/mL • Rabeprazole sodium: LLOQ: 2.00 ng/mL; […] […] Pharmacokinetics Evaluation Plasma drug concentrations of various groups at different time points were determined, including: arithmetic mean, standard deviation, minimum, median, maximum, geometric mean, coefficient of variation, and coefficient of geometric variation. The pharmacokinetic parameters calculated from the first and last administration were descriptively analyzed according to various trial groups, including: arithmetic mean, standard deviation, minimum value, median, maximum value, geometric mean, coefficient of variation, geometric coefficient of variation, etc. In addition, the accumulation index AUC0-tau, ss(D15)/AUC0-tau (D1) was calculated. […]

| SMILES | Resistance rate of Helicobacter pylori (Helicobacter pylori) | Effect of amoxicillin on the major pharmacokinetic parameters of rabeprazole [1] |
| --- | --- | --- |
| Cc1ncc([N+](=O)[O-])n1CCO [metronidazole] | 40-70% | – |
| COCCCOc1ccnc(C[S+]([O-])c2nc3ccccc3[n-]2)c1C.[Na+] (centres unmarked) [rabeprazole, rabeprazole sodium, reference compound] | – | no significant effect |
